Experimental data from patent US20050282743A1, “Molecular interactions in cells” (Arbor Vita Corporation, priority 2001, published 2005).
Ends that are not written are not given here. Peptide text beside a SMILES is read from it. * marks the point of attachment. Biotin = O=C1N[C@H]2[C@H](CS[C@H]2CCCCC(=O)*)N1

Tests used:
Assay in all cases: G' assay (10 uM PL peptide), results of TABLE 7 and TABLE 12
Assay type in all cases: binding
[1] = biological target: T1, PDZ protein (GST-PDZ fusion) (Homo sapiens, UniProt Q5TCQ9)
T1 construct: made in house; host or cells: E. coli (DH5alpha, BL21 or JM109)
T1 sequence (Q5TCQ9 1-1481): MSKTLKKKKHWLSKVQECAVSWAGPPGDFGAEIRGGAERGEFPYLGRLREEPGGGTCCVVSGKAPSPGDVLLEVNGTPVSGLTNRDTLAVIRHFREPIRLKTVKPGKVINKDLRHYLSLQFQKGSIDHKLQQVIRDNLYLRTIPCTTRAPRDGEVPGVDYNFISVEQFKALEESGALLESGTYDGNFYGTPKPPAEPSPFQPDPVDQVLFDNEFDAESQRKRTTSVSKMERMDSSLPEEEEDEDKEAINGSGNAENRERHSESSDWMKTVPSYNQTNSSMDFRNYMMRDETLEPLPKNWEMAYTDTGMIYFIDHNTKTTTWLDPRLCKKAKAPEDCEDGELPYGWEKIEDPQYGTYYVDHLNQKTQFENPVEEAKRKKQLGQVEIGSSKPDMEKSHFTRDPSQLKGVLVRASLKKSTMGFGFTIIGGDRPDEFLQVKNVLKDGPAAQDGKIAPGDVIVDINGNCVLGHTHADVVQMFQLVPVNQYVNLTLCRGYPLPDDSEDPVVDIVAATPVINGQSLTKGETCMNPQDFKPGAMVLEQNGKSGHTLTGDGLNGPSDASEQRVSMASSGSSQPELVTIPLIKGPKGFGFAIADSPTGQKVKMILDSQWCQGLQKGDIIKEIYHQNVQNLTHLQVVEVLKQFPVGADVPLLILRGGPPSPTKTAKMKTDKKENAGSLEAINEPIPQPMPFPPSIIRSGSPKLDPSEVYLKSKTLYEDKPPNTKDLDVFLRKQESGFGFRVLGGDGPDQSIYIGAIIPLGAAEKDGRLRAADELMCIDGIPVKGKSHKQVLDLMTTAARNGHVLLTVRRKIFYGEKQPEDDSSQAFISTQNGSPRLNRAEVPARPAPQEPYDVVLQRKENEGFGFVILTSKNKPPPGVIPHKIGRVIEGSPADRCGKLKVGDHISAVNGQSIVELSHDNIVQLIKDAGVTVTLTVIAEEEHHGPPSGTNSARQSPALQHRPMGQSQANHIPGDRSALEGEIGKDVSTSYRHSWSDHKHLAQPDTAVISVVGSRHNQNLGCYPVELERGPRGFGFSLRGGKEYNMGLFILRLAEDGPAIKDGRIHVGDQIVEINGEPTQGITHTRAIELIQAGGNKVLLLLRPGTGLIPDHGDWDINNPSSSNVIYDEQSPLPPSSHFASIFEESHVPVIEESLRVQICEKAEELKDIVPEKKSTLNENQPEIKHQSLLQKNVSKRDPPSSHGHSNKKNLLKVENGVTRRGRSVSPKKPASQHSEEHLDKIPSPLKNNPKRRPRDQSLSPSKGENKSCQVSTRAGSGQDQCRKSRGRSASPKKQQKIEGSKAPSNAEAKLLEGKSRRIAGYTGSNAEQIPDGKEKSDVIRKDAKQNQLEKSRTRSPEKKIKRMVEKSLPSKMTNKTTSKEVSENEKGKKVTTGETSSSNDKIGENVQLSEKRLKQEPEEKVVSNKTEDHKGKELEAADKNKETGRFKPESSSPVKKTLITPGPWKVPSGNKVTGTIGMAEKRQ
Outline: (§1)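 Binding classes derive from A450 nm of bound biotin-tagged PL peptide. A score of 5 needs A450 above 4 in more than two repeats.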

[2] = biological target: T2, PDZ protein (GST-PDZ fusion) (Homo sapiens, UniProt Q6P0Q8)
T2 construct: made in house; host or cells: E. coli (DH5alpha, BL21 or JM109)
Outline: as §1

[3] = biological target: T3, PDZ protein (GST-PDZ fusion) (Homo sapiens, UniProt P78352)
T3 construct: made in house; host or cells: E. coli (DH5alpha, BL21 or JM109)
Outline: as §1

[4] = biological target: T4, PDZ protein (GST-PDZ fusion) (Homo sapiens, UniProt Q12923)
T4 construct: made in house; host or cells: E. coli (DH5alpha, BL21 or JM109)
T4 sequence (Q12923 whole entry, the tested form may be a part): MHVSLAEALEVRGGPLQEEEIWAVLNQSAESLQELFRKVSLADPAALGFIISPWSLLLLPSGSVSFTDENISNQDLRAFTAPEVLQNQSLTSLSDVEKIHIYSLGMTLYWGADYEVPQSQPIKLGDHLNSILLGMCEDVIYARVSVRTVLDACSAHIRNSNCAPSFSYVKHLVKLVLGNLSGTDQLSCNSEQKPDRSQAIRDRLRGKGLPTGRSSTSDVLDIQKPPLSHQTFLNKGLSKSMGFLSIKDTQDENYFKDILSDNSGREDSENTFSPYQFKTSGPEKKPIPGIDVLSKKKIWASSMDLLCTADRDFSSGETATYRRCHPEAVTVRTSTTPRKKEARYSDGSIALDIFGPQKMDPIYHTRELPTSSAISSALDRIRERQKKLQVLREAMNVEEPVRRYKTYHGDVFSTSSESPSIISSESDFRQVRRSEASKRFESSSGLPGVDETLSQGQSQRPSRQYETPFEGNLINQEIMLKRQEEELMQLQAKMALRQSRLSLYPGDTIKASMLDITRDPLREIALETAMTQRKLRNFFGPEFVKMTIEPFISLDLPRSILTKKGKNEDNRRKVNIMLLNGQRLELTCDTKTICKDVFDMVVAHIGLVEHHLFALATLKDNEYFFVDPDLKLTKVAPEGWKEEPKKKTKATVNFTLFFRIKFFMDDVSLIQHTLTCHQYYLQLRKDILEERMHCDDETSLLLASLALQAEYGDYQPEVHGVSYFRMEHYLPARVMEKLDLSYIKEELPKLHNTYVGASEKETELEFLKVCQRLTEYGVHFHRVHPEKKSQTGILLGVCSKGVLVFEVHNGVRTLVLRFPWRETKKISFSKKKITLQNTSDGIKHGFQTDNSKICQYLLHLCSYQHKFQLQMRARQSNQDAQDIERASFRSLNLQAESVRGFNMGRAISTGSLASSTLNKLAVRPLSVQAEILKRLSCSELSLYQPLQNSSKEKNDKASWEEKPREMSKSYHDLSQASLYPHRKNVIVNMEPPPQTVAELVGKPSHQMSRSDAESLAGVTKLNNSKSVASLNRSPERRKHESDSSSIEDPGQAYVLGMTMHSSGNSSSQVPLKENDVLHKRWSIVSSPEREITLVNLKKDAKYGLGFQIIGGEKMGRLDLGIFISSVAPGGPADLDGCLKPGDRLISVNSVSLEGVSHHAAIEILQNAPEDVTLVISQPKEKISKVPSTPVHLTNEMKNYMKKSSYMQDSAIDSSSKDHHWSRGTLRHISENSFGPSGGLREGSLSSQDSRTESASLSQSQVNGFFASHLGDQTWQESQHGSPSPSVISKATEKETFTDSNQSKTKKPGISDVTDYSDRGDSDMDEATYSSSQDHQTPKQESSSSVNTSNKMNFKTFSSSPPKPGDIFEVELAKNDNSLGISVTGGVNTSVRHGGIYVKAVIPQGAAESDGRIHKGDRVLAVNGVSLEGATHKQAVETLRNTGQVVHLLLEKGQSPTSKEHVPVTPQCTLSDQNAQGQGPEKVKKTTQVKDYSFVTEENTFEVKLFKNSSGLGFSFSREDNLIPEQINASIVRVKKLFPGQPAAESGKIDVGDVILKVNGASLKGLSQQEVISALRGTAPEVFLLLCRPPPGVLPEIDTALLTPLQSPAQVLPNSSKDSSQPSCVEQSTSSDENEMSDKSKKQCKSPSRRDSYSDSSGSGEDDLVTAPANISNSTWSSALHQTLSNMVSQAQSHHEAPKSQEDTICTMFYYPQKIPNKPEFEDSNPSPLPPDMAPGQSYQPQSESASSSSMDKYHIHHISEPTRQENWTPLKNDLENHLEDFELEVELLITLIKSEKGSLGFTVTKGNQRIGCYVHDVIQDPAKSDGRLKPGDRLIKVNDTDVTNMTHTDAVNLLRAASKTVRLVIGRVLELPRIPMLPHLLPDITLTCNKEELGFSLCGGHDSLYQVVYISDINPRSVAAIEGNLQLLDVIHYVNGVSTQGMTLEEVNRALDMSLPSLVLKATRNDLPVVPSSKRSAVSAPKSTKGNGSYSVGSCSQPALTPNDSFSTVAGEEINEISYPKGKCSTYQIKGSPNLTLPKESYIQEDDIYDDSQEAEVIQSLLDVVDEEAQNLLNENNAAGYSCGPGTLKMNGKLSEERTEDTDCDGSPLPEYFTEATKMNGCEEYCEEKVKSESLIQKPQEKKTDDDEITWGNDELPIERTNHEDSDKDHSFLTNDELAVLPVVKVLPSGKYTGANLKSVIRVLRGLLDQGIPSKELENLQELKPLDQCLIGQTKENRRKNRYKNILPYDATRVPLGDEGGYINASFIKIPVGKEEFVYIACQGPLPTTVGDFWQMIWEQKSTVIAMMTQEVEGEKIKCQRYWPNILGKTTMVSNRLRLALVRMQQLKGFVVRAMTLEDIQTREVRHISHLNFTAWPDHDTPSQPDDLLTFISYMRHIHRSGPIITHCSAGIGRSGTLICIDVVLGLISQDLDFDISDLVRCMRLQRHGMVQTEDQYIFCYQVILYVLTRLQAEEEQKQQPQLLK
Outline: as §1

[5] = biological target: T5, PDZ protein (GST-PDZ fusion) (Homo sapiens, UniProt Q8NI35); details: PDZ INADL
T5 construct: made in house; host or cells: E. coli (DH5alpha, BL21 or JM109)
Outline: as §1

[6] = biological target: T6, PDZ protein (GST-PDZ fusion) (Homo sapiens, UniProt Q14160)
T6 construct: made in house; host or cells: E. coli (DH5alpha, BL21 or JM109)
Outline: as §1

[7] = biological target: T7, PDZ protein (GST-PDZ fusion) (Homo sapiens, UniProt O75970)
T7 construct: made in house; host or cells: E. coli (DH5alpha, BL21 or JM109)
T7 sequence (O75970 whole entry, the tested form may be a part): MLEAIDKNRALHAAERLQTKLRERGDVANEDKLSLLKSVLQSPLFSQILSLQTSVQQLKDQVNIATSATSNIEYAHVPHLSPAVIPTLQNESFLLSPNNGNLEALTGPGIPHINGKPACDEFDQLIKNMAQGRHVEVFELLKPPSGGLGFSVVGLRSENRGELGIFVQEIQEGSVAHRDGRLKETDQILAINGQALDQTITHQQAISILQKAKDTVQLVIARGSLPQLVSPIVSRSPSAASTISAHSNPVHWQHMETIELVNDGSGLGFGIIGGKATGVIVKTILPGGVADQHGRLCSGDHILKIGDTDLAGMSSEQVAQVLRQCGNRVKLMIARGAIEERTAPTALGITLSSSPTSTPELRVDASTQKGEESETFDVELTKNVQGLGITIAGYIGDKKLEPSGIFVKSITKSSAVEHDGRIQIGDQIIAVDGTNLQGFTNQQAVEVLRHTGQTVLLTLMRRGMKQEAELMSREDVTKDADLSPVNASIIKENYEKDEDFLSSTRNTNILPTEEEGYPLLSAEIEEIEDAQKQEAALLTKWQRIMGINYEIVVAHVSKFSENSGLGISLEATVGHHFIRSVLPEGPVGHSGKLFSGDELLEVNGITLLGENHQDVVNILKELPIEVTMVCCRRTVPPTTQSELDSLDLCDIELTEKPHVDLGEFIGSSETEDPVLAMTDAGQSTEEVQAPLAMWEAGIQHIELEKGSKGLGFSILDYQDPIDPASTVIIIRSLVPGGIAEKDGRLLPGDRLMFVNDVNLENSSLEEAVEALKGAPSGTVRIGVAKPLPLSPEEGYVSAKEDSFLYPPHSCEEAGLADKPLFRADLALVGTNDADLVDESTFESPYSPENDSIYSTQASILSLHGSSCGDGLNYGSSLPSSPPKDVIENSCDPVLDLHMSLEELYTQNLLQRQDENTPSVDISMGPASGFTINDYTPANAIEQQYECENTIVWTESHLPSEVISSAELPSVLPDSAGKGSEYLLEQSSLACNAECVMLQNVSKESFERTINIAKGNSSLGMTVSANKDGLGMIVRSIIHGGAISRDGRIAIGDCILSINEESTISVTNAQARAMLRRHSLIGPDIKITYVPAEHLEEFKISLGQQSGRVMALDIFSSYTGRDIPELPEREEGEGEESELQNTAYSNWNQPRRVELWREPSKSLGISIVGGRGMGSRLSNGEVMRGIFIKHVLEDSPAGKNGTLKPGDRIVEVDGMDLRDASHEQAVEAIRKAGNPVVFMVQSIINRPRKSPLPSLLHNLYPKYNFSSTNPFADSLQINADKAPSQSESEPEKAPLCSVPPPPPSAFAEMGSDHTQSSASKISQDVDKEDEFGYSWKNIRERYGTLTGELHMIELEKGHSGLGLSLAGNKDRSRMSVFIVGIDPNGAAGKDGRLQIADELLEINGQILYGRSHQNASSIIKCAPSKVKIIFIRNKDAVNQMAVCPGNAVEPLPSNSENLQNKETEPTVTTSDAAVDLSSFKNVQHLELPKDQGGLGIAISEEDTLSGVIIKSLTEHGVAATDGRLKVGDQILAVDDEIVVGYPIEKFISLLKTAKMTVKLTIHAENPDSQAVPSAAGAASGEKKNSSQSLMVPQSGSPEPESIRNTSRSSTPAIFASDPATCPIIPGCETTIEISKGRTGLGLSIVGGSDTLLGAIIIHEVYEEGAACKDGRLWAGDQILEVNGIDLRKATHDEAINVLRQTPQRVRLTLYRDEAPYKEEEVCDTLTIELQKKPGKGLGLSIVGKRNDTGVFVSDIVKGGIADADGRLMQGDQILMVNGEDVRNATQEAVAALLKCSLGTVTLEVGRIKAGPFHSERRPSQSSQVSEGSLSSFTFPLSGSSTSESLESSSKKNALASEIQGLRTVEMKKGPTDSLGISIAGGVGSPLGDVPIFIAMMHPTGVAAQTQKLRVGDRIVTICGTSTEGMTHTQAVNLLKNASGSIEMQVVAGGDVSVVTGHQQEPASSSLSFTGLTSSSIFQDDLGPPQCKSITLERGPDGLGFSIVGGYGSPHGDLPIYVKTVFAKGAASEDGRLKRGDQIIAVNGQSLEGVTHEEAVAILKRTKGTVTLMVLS
Outline: as §1

Classification ([2]; PDZ KIAA0807(S), PDZ Domain 1)	Classification ([2]; PDZ KIAA807 (domain not given))	Classification ([3]; PDZ PSD95, PDZ Domain 1, 2, 3)	Classification ([4]; PDZ PTPL-1, PDZ Domain 2)	Classification ([5]; PDZ Domain 5)	Classification ([5]; PDZ Domain 8)	Classification ([6]; PDZ KIAA0147, PDZ Domain 2)	Compound	Classification ([1]; PDZ KIAA1634, PDZ Domain 5)	Classification ([3]; PDZ PSD95, PDZ Domain 1)	Classification ([6]; PDZ KIAA0147, PDZ Domain 4)	Classification ([1]; PDZ KIAA1634, PDZ Domain 1)	Classification ([1]; PDZ KIAA1634, PDZ Domain 2)	Classification ([7]; PDZ MUPP-1, PDZ Domain 10)	Classification ([6]; PDZ KIAA0147, PDZ Domain 1)	Classification ([1]; PDZ KIAA1634, PDZ Domain 4)	Classification ([7]; PDZ MUPP-1, PDZ Domain 13)	Classification ([3]; PDZ PSD95, PDZ Domain 3)	Classification ([5]; PDZ Domain 3)	Classification ([6]; PDZ KIAA0147, PDZ Domain 3)	also measured
3 (A450 nm 2-3)	4 (A450 nm 3-4)	2 (A450 nm 1-2)	5 (A450 nm of 4 more than 2× repeated)	1 (A450 nm 0-1)	2 (A450 nm 1-2)	3 (A450 nm 2-3)	PYSELNYETSHYPASPDSWV (Biotin-PYSELNYETSHYPASPDSWV) [catenin - delta 2]	3 (A450 nm 2-3)	1 (A450 nm 0-1)	1 (A450 nm 0-1)	–	–	–	–	–	–	–	–	–	Classification ([4]; PDZ PTPL-1, PDZ Domain 4): 1 (A450 nm 0-1)
5 (A450 nm of 4 more than 2× repeated)	–	5 (A450 nm of 4 more than 2× repeated)	5 (A450 nm of 4 more than 2× repeated)	1 (A450 nm 0-1)	1 (A450 nm 0-1)	1 (A450 nm 0-1)	TQGFPGPATWRRISSLESEV	1 (A450 nm 0-1)	5 (A450 nm of 4 more than 2× repeated)	–	5 (A450 nm of 4 more than 2× repeated)	3 (A450 nm 2-3)	1 (A450 nm 0-1)	5 (A450 nm of 4 more than 2× repeated)	1 (A450 nm 0-1)	5 (A450 nm of 4 more than 2× repeated)	2 (A450 nm 1-2)	2 (A450 nm 1-2)	1 (A450 nm 0-1)	Classification ([2]; PDZ KIAA807, PDZ Domain not given): 4 (A450 nm 3-4); Classification ([7]; PDZ MUPP-1, PDZ Domain 5): 1 (A450 nm 0-1)

More lines, now with the values behind:

Compound	Classification ([2]; PDZ KIAA0807(S), PDZ Domain 1)	Classification ([2]; PDZ KIAA807 (domain not given))	Classification ([3]; PDZ PSD95, PDZ Domain 1, 2, 3)	Classification ([4]; PDZ PTPL-1, PDZ Domain 2)	Classification ([5]; PDZ Domain 5)	Classification ([5]; PDZ Domain 8)	Classification ([6]; PDZ KIAA0147, PDZ Domain 2)	Classification ([1]; PDZ KIAA1634, PDZ Domain 5)	Classification ([3]; PDZ PSD95, PDZ Domain 1)	Classification ([6]; PDZ KIAA0147, PDZ Domain 4)	Classification ([1]; PDZ KIAA1634, PDZ Domain 1)	Classification ([1]; PDZ KIAA1634, PDZ Domain 2)	Classification ([7]; PDZ MUPP-1, PDZ Domain 10)	Classification ([6]; PDZ KIAA0147, PDZ Domain 1)	Classification ([1]; PDZ KIAA1634, PDZ Domain 4)	Classification ([7]; PDZ MUPP-1, PDZ Domain 13)	Classification ([3]; PDZ PSD95, PDZ Domain 3)	Classification ([5]; PDZ Domain 3)	Classification ([6]; PDZ KIAA0147, PDZ Domain 3)	also measured
APC—adenomatous polyposis coli protein (ESSGTQSPKRHSGSYLVTSV)	1 (A450 nm 0-1)	1 (A450 nm 0-1)	5 (A450 nm of 4 more than 2× repeated)	–	–	2 (A450 nm 1-2)	–	–	–	–	1 (A450 nm 0-1)	1 (A450 nm 0-1)	1 (A450 nm 0-1)	1 (A450 nm 0-1)	–	–	–	–	–	–
CC(C)C[C@H](NC(=O)[C@H](CCCNC(=N)N)NC(=O)CNC(=O)CNC(=O)[C@H](CCCNC(=N)N)NC(=O)[C@H](C)NC(=O)[C@@H]1CCCN1C(=O)[C@H](CCCNC(=N)N)NC(=O)CNC(=O)CNC(=O)[C@@H](NC(=O)[C@H](C)NC(=O)CCCC[C@@H]1SC[C@@H]2NC(=O)N[C@@H]21)C(C)C)C(=O)N[C@@H](CCC(N)=O)C(=O)NCC(=O)N[C@@H](CCCNC(=N)N)C(=O)N[C@@H](CCCNC(=N)N)C(=O)N[C@@H](CCC(N)=O)C(=O)N[C@H](C(=O)N[C@@H](CCC(N)=O)C(=O)N[C@H](C(=O)O)C(C)C)[C@@H](C)O [HPV E6 58 (modified)] (Biotin-AVGGRPARGGRLQGRRQTQV-OH; C-terminus assumed)	5 (A450 nm of 4 more than 2× repeated)	–	5 (A450 nm of 4 more than 2× repeated)	–	–	4 (A450 nm 3-4)	–	1 (A450 nm 0-1)	5 (A450 nm of 4 more than 2× repeated)	–	5 (A450 nm of 4 more than 2× repeated)	1 (A450 nm 0-1)	3 (A450 nm 2-3)	2 (A450 nm 1-2)	–	1 (A450 nm 0-1)	5 (A450 nm of 4 more than 2× repeated)	–	–	–
CC[C@H](C)[C@H](NC(=O)[C@H](CO)NC(=O)[C@@H](NC(=O)[C@H](Cc1ccccc1)NC(=O)[C@H](CO)NC(=O)CCCC[C@@H]1SC[C@@H]2NC(=O)N[C@@H]21)[C@@H](C)O)C(=O)N[C@@H](CC(C)C)C(=O)N[C@H](C(=O)N[C@@H](CS)C(=O)N[C@@H](Cc1c[nH]cn1)C(=O)N[C@@H](CCC(N)=O)C(=O)N[C@@H](CCCNC(=N)N)C(=O)N[C@@H](CCCNC(=N)N)C(=O)N[C@H](C(=O)N[C@@H](CCC(N)=O)C(=O)N[C@@H](CCCNC(=N)N)C(=O)N[C@@H](CCCCN)C(=O)N[C@@H](CCC(=O)O)C(=O)N[C@H](C(=O)N[C@H](C(=O)N[C@@H](C)C(=O)O)C(C)C)[C@@H](C)O)[C@@H](C)O)[C@@H](C)O [GluR5-2 (rat)]	1 (A450 nm 0-1)	–	5 (A450 nm of 4 more than 2× repeated)	–	–	–	–	–	3 (A450 nm 2-3)	–	5 (A450 nm of 4 more than 2× repeated)	–	2 (A450 nm 1-2)	2 (A450 nm 1-2)	–	–	5 (A450 nm of 4 more than 2× repeated)	–	–	Classification ([7]; PDZ MUPP-1, PDZ Domain 11): 1 (A450 nm 0-1)
CC[C@H](C)[C@H](NC(=O)[C@H](CCC(N)=O)NC(=O)CCCC[C@@H]1SC[C@@H]2NC(=O)N[C@@H]21)C(=O)N[C@@H](CO)C(=O)N1CCC[C@H]1C(=O)NCC(=O)NCC(=O)N[C@@H](CC(C)C)C(=O)N[C@@H](CCC(=O)O)C(=O)N1CCC[C@H]1C(=O)N1CCC[C@H]1C(=O)N[C@@H](CO)C(=O)N[C@@H](CCC(=O)O)C(=O)N[C@@H](CCCCN)C(=O)N[C@@H](Cc1c[nH]cn1)C(=O)N[C@@H](Cc1ccccc1)C(=O)N[C@@H](CCCNC(=N)N)C(=O)N[C@@H](CCC(=O)O)C(=O)N[C@H](C(=O)N[C@@H](CCC(=O)O)C(=O)N[C@H](C(=O)O)C(C)C)[C@@H](C)O [Tax]	–	–	–	2 (A450 nm 1-2)	–	–	5 (A450 nm of 4 more than 2× repeated)	1 (A450 nm 0-1)	5 (A450 nm of 4 more than 2× repeated)	1 (A450 nm 0-1)	5 (A450 nm of 4 more than 2× repeated)	2 (A450 nm 1-2)	–	5 (A450 nm of 4 more than 2× repeated)	2 (A450 nm 1-2)	5 (A450 nm of 4 more than 2× repeated)	1 (A450 nm 0-1)	1 (A450 nm 0-1)	1 (A450 nm 0-1)	Classification ([3]; PDZ PSD95, PDZ Domain 2): 1 (A450 nm 0-1)
